What was measured:
[1] = system: human MPB derived CD34^+ cells; assay: human CD45^+ engraftment in bone marrow of NSG mice after primary transplant (1 T); assay type: in vivo; details: 24 weeks post 1 T; 72-96 h LV and RV groups
Procedure: Freshly isolated CD34^+ cells were used, wherever possible, and especially for 0 h controls. In some experiments cryopreserved CD34^+ cells were thawed for 4 hrs in IMDM containing cytokines, then washed and used for experiments. […] Cells were kept in culture for a total of either 18-24 hours, 36-42 hours or 72-96 hours. For RV transduction, human CD34^+ cells were pre-stimulated for 2 days (42-48 hours) hours at a cell density of 3×10^5 cells/ml. Retronectin coated tissue culture flasks or plates were preloaded at room temperature with GALV pseudotyped RV twice for one hour each. The vector supernatant was removed and the cells were loaded into the RV loaded retronectin coated flasks. RV transduction was also performed twice 24 hours apart at an MOI ranging from 5 to 10. After total of 72-96 hours in culture, cells were harvested. LV and RV transductions were performed at 37° C. under 5% CO2 in ambient oxygen concentrations (20% 02). For some experiments, LV was added just like RV after 2 days of pre-stimulation. p38 MAPK inhibitors Birb 796 (600 nM), Vx-745 (1 μM), or LY 2228820 (500 nM) (all from Selleckchem) were supplemented to the culture media. […] Human engraftment was analyzed in bone marrow (BM), via BM aspirates performed at 6 and 12 weeks from left and right femurs. […]

CD34^+38^−90^+ cells = assay: Annexin V apoptosis assay in HSCs; assay type: cell-based, human; details: annexin V^+ CD34^+38^−90^+ cells
Excerpt: (§1) PE-Cyanine 7 or APC-EFLUOR® 780, APC- or PE-conjugated antibodies directed to human CD34 (BD Biosciences 560710 or 555824), CD38 (eBiosciences, San Diego, Calif. 47-0389-42), CD90 (BioLegend 328120), CD45RA (eBiosciences 17-0458-42), CD49f (BD Biosciences 555736), CD45 (BD 55485 or Biolegend 304026), CD33 (eBiosciences 25-0338-42), CD19 (BD Biosciences 557791), or CD3 (BD Biosciences 555340). Cells (˜5×10^5−1×10^6) were used to label with antibodies as per manufacturer instructions with the appropriate isotype controls. For phospho-flow, primary antibodies phospho-p38 (Thr180/Tyr182; 4092S), phospho-p44/42 MAPK (ERK ½) (Thr202/Tyr204; 4094S), and phospho-JNK (Thr183-Tyr185 PE conjugate; 5755S) (all from Cell Signaling) were used for staining overnight followed by wash and secondary antibody stain including Goat anti-Rabbit IgG (H+L) or Goat anti-Rabbit IgG (H+L) or Pacific Blue (P-10994) antibody. Apoptosis assay was performed using PE Annexin V Apoptosis Detection Kit (BD Biosciences 559763) according to the manufacturer's instructions. Total ROS and mitochondrial specific ROS were detected using 10 μM CM-H2DCFDA (ThermoFisher Scientific C6827) and 5 μM MITOSOX™ Red (Red Mitochondrial Superoxide Indicator) (ThermoFisher Scientific M36008) respectively, following manufacturer's instructions.

[2] = system: CD34^+38^−90^+45RA^−49f^+ HSCs; assay: phenotypic HSC population by flow cytometry; assay type: cell-based, human
Excerpt: as §1

CD34^+38^−90^+ HSCs = assay: cell cycle analysis (Ki-67 / Hoechst) of HSCs; assay type: cell-based, human
[3] = before the first HSC division in vitro (24 h)

## Cc1ccc(-n2nc(C(C)(C)C)cc2NC(=O)Nc2ccc(OCCN3CCOCC3)c3ccccc23)cc1 [p38i, 1-[5-tert-butyl-2-(4-methylphenyl)pyrazol-3-yl]-3-[4-(2-morpholin-4-ylethoxy)naphthalen-1-yl]urea]
[1]
  human CD45^+ cell engraftment in the NSG BM: improved
CD34^+38^−90^+ cells
  apoptosis in the HSC compartment: no difference
[2]; other than prolonged cultures
  increased phenotypic HSC population: similar
[2]; prolonged cultures
  phenotypic HSCs: higher
CD34^+38^−90^+ HSCs; HSCs transduced when actively cycling (RV)
  percentage of cells in the different phases of cell cycle: no difference
CD34^+38^−90^+ HSCs; after HSCs progressed through cell cycle
  effect on increasing the G0 population: lost
CD34^+38^−90^+ HSCs; [3]
  proportion of HSCs in the G0 quiescent phase: significantly increased
  proportion of HSCs in the S-G2M phase: decreased

Source: patent US11518981B2, “Methods of enhancing engraftment activity of hematopoietic stem cells” (CHILDREN'S HOSPITAL MEDICAL CENTER, priority 2017, dated 2022)
